#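 In this assay, cells in 96-well plates receive the compound at five concentrations for 48 hours. Endpoints are linearly interpolated between the surrounding concentrations. Abbreviation: GI50, concentration required for 50% inhibition of growth.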 Activity calls are given as the source filed them. Rule as the data show it: active = GI50 up to about 1.1 µM and inactive = higher.
# Columns and labels:
# Test in all cases: DTP human tumour cell line panel, 48 h
# MDA-MB-435 = test system: MDA-MB-435
# SK-MEL-28 = test system: SK-MEL-28
# Malme-3M = test system: Malme-3M
# SF-268 = test system: SF-268
# SNB-19 = test system: SNB-19
# RXF 393 = test system: RXF 393
# MOLT-4 = test system: MOLT-4
# TK-10 = test system: TK-10
# KM12 = test system: KM12
# MDA-N = test system: MDA-N
# NCI-H23 = test system: NCI-H23
# NCI/ADR-RES = test system: NCI/ADR-RES
# UACC-62 = test system: UACC-62
# 786-0 = test system: 786-0
# OVCAR-3 = test system: OVCAR-3
# IGROV-1 = test system: IGROV-1
# T47D = test system: T47D
# COLO 205 = test system: COLO 205
# UO-31 = test system: UO-31
# HL-60 = test system: HL-60
# OVCAR-5 = test system: OVCAR-5
# U-251 = test system: U-251
# NCI-H522 = test system: NCI-H522
# MCF7 = test system: MCF7
# SF-295 = test system: SF-295
# OVCAR-4 = test system: OVCAR-4
# SK-MEL-2 = test system: SK-MEL-2
# M14 = test system: M14
# CAKI-1 = test system: CAKI-1
# HOP-62 = test system: HOP-62
# A549 = test system: A549
# SNB-75 = test system: SNB-75
# PC-3 = test system: PC-3
# EKVX = test system: EKVX
# HCT-15 = test system: HCT-15
# K562 = test system: K562
# NCI-H460 = test system: NCI-H460
# DU-145 = test system: DU-145
# HT-29 = test system: HT-29
# NCI-H226 = test system: NCI-H226
# UACC-257 = test system: UACC-257
# RPMI-8226 = test system: RPMI-8226
# HCT-116 = test system: HCT-116
# SW-620 = test system: SW-620
# SK-OV-3 = test system: SK-OV-3
# OVCAR-8 = test system: OVCAR-8
# ACHN = test system: ACHN
# MDA-MB-231 = test system: MDA-MB-231
# BT-549 = test system: BT-549
# SK-MEL-5 = test system: SK-MEL-5
# HCC 2998 = test system: HCC 2998
# SN12C = test system: SN12C
# CCRF-CEM = test system: CCRF-CEM
# Hs-578T = test system: Hs-578T
# A498 = test system: A498
# LOX IMVI = test system: LOX IMVI
# SF-539 = test system: SF-539
# SR = test system: SR
smiles,measurement,setting,value
O=C(NCc1ccccc1)c1nn[nH]c1O,GI50,MDA-MB-435,> 100 µM (inactive)
same,GI50,SK-MEL-28,> 100 µM (inactive)
same,GI50,Malme-3M,> 100 µM (inactive)
same,GI50,SF-268,> 100 µM (inactive)
same,GI50,SNB-19,> 100 µM (inactive)
same,GI50,RXF 393,> 100 µM (inactive)
same,GI50,MOLT-4,> 100 µM (inactive)
same,GI50,TK-10,> 100 µM (inactive)
same,GI50,KM12,> 100 µM (inactive)
same,GI50,MDA-N,> 100 µM (inactive)
same,GI50,NCI-H23,> 100 µM (inactive)
same,GI50,NCI/ADR-RES,> 100 µM (inactive)
same,GI50,UACC-62,> 100 µM (inactive)
same,GI50,786-0,> 100 µM (inactive)
same,GI50,OVCAR-3,> 100 µM (inactive)
same,GI50,IGROV-1,> 100 µM (inactive)
same,GI50,T47D,> 100 µM (inactive)
same,GI50,COLO 205,> 100 µM (inactive)
same,GI50,UO-31,> 100 µM (inactive)
same,GI50,HL-60,> 100 µM (inactive)
same,GI50,OVCAR-5,> 100 µM (inactive)
same,GI50,U-251,> 100 µM (inactive)
same,GI50,NCI-H522,> 100 µM (inactive)
same,GI50,MCF7,> 100 µM (inactive)
same,GI50,SF-295,> 100 µM (inactive)
same,GI50,OVCAR-4,> 100 µM (inactive)
same,GI50,SK-MEL-2,> 100 µM (inactive)
same,GI50,M14,> 100 µM (inactive)
same,GI50,CAKI-1,> 100 µM (inactive)
same,GI50,HOP-62,> 100 µM (inactive)
same,GI50,A549,> 100 µM (inactive)
same,GI50,SNB-75,> 100 µM (inactive)
same,GI50,PC-3,> 100 µM (inactive)
same,GI50,EKVX,> 100 µM (inactive)
same,GI50,HCT-15,> 100 µM
same,GI50,K562,> 100 µM (inactive)
same,GI50,NCI-H460,> 100 µM (inactive)
same,GI50,DU-145,> 100 µM (inactive)
same,GI50,HT-29,> 100 µM (inactive)
same,GI50,NCI-H226,> 100 µM (inactive)
same,GI50,UACC-257,> 100 µM (inactive)
same,GI50,RPMI-8226,> 100 µM (inactive)
same,GI50,HCT-116,> 100 µM (inactive)
same,GI50,SW-620,> 100 µM (inactive)
same,GI50,SK-OV-3,> 100 µM (inactive)
same,GI50,OVCAR-8,> 100 µM (inactive)
same,GI50,ACHN,> 100 µM (inactive)
same,GI50,MDA-MB-231,> 100 µM (inactive)
same,GI50,BT-549,> 100 µM (inactive)
same,GI50,SK-MEL-5,> 100 µM (inactive)
same,GI50,HCC 2998,> 100 µM (inactive)
same,GI50,SN12C,> 100 µM (inactive)
same,GI50,CCRF-CEM,> 100 µM (inactive)
same,GI50,Hs-578T,> 100 µM (inactive)
COc1cc2c3c(n(CCCNCCO)c(=O)c2cc1OC)-c1cc2c(cc1C3=O)OCO2,GI50,SF-268,< 0.0338 µM (active)
same,GI50,SNB-19,0.012 µM (active)
same,GI50,MOLT-4,< 0.01 µM (active)
same,GI50,TK-10,1.38 µM (inactive)
same,GI50,KM12,0.541 µM (active)
same,GI50,MDA-N,0.611 µM (active)
same,GI50,NCI-H23,< 0.01 µM (active)
same,GI50,NCI/ADR-RES,0.546 µM (active)
same,GI50,UACC-62,0.0236 µM (active)
same,GI50,786-0,< 0.01 µM (active)
same,GI50,OVCAR-3,0.813 µM (active)
same,GI50,A498,0.378 µM (active)
same,GI50,IGROV-1,0.0935 µM (active)
same,GI50,T47D,0.0165 µM (active)
same,GI50,COLO 205,0.392 µM (active)
same,GI50,LOX IMVI,< 0.01 µM (active)
same,GI50,HL-60,< 0.0465 µM (active)
same,GI50,OVCAR-5,0.384 µM (active)
same,GI50,NCI-H522,< 0.038 µM (active)
same,GI50,MCF7,< 0.01 µM (active)
same,GI50,SF-539,0.0381 µM (active)
same,GI50,SF-295,< 0.01 µM (active)
same,GI50,M14,0.0422 µM (active)
same,GI50,PC-3,1.02 µM (active)
same,GI50,NCI-H460,< 0.01 µM (active)
same,GI50,DU-145,< 0.01 µM (active)
same,GI50,HT-29,< 0.0311 µM (active)
same,GI50,NCI-H226,0.206 µM (active)
same,GI50,SW-620,0.16 µM (active)
same,GI50,OVCAR-8,0.158 µM (active)
same,GI50,ACHN,< 0.01 µM (active)
same,GI50,MDA-MB-231,0.537 µM (active)
same,GI50,BT-549,0.935 µM (active)
same,GI50,SR,< 0.01 µM (active)
same,GI50,SK-MEL-5,0.19 µM (active)
same,GI50,HCC 2998,0.536 µM (active)
same,GI50,SN12C,< 0.01 µM (active)
same,GI50,CCRF-CEM,< 0.01 µM (active)
same,GI50,Hs-578T,1.71 µM (inactive)

# From ChEMBL document CHEMBL1201862, “PubChem BioAssay data set” (2004)
